Test results from ChEMBL document CHEMBL1201862, “PubChem BioAssay data set” (2004).
Each block holds one compound with its values, some of them ahead of it. Calls of active or inactive are those of the source.

Columns and labels:
[1] = molecular target: T1, Calpain-2 catalytic subunit (Sus scrofa, UniProt P43367); test: pig calpain II inhibitor potency, dose response, biochemical, fluorogenic peptide substrate (AID 1420); format: functional
T1 sequence (P43367 whole entry): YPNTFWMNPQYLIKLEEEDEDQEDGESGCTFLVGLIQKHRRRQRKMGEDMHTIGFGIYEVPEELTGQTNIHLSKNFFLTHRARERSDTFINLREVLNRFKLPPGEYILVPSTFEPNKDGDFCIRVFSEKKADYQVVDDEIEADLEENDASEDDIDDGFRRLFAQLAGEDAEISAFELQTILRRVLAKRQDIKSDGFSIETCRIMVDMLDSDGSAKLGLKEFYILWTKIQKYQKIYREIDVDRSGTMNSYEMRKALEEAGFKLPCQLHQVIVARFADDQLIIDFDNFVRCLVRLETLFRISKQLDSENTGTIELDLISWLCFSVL

[2] = HepG2 cell cytotoxicity, dose response, cytotoxicity control for Shn3 inhibitor project, CellTiter-Glo, cherry-picked (AID 624134); format: functional, cell-based
[3] = control 3'UTR Renilla luciferase suppression, dose response, counter-screen for Shn3 inhibitor project, cell-based, Clone20-Shn3RL, cherry-picked (AID 624133); format: functional
[4] = Shn3 3'UTR reporter inhibitors, dose response, cell-based, Clone20 osteoblasts, firefly luciferase, cherry-picked (AID 624132); format: functional;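 also: firefly luciferase luminescence from reporter carrying the Shn3 3'UTR in osteoblasts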
Leucine aminopeptidase = molecular target: T2, Leucine aminopeptidase (Plasmodium falciparum 3D7, UniProt Q8IL11); test: P. falciparum M17LAP inhibitors, primary screen, biochemical, fluorogenic H-Leu-NHMec substrate, 1536-well (AID 1619); format: functional
T2 sequence (Q8IL11 whole entry): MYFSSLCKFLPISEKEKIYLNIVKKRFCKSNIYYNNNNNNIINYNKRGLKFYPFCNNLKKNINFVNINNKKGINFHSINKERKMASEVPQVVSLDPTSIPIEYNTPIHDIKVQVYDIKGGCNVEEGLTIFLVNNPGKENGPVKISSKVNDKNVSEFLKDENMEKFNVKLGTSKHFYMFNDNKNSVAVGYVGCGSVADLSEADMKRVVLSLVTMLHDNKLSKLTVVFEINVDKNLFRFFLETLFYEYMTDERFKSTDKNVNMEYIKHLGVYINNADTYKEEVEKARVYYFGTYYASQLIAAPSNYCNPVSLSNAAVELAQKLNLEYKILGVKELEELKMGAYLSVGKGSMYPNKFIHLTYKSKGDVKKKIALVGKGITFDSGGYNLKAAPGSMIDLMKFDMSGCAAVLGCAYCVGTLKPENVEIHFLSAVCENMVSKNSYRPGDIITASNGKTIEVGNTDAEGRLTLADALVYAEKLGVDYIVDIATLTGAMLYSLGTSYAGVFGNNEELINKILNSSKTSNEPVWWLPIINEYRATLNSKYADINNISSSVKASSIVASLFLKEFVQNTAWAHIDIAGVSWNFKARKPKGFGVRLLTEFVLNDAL

[5] = molecular target: Induced myeloid leukemia cell differentiation protein Mcl-1 (Homo sapiens, UniProt Q07820); format: functional
Induced myeloid leukemia cell differentiation protein Mcl-1, sequence (Q07820 whole entry): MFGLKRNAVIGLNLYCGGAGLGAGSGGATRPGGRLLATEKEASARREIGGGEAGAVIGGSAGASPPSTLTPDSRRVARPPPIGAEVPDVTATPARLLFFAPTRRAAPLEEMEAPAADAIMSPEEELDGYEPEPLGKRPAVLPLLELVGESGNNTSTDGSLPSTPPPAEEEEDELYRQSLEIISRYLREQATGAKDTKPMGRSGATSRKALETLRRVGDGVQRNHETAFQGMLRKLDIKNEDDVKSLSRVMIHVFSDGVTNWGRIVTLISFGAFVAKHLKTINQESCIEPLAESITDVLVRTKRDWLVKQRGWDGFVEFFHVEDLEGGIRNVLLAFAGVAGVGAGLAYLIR

[6] = molecular target: Eukaryotic translation initiation factor 4E (Mus musculus, UniProt P63073); test: eIF4E–eIF4G protein interaction inhibitors, dose response, biochemical, TR-FRET (AID 855); format: functional;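 also: potency for disrupting eIF4E binding to eIF4GI seen as loss of FRET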
Eukaryotic translation initiation factor 4E, sequence (P63073 whole entry): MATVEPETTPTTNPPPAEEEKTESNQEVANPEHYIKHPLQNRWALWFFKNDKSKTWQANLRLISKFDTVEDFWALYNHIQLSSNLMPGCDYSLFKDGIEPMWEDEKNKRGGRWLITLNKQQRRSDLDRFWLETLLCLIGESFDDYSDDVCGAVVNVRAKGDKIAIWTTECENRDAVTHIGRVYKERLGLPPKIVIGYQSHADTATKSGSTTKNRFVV

Cytochrome P450 3A4 = Cytochrome P450 3A4 (Homo sapiens, UniProt P08684);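 also: CYP3A4 tested as one member of a cytochrome P450 panel screen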
Cytochrome P450 3A4, sequence (P08684 whole entry): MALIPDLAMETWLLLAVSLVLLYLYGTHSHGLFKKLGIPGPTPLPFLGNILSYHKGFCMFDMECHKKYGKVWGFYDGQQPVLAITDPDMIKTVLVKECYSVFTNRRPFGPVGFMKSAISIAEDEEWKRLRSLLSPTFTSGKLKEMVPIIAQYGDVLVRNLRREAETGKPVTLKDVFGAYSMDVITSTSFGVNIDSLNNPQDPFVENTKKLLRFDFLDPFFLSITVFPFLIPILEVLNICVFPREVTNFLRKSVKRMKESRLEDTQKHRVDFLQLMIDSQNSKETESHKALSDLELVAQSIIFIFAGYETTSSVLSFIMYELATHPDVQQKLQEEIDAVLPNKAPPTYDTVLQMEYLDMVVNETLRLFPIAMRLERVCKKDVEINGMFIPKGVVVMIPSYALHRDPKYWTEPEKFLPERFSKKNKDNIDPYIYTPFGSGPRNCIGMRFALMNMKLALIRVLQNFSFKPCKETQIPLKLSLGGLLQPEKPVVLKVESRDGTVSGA

Cytochrome P450 2C19 = Cytochrome P450 2C19 (Homo sapiens, UniProt P33261); test: Cytochrome panel assay with activity outcomes. Panel member name: p450-cyp2c19 Compounds with AC50 equal or less than 10 uM are considered active; format: functional; details: read-out: AC50
Cytochrome P450 2C19, sequence (P33261 whole entry): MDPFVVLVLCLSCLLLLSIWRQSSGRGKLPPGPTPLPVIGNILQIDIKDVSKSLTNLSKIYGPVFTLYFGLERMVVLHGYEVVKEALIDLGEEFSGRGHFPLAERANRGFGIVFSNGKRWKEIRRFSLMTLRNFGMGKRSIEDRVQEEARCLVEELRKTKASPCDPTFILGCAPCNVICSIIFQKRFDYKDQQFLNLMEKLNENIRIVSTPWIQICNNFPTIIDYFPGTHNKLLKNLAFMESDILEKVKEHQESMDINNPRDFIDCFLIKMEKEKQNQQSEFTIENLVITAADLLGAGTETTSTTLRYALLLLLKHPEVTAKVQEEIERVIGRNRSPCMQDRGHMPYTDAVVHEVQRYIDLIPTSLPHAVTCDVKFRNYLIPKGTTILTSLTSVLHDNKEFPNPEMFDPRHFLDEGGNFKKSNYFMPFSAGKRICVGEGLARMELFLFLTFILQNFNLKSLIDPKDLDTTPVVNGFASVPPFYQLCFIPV

[7] = molecular target: Glyceraldehyde-3-phosphate dehydrogenase (Homo sapiens, UniProt P04406)
Glyceraldehyde-3-phosphate dehydrogenase, sequence (P04406 whole entry, the tested form may be a part): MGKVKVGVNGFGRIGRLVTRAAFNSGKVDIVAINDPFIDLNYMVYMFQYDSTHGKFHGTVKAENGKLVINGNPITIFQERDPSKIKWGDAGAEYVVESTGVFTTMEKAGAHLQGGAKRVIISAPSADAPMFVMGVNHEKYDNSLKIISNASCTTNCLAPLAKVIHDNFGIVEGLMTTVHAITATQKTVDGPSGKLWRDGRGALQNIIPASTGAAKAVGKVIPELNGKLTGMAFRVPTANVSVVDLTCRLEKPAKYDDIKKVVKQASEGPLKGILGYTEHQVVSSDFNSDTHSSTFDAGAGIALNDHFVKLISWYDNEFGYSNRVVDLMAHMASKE

[8] = inhibitors of HIV Env-driven cell fusion, dose response, cherry-pick (AID 652057); format: functional, cell-based
[9] = inhibitors of clade B AD8 Env fusion, dose response, cell-based, cherry-pick (AID 652062); format: functional;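 also: luciferase signal from cell-cell fusion driven by HIV-1 clade B AD8 Env; potency is for inhibitors of fusion seen as a drop in luminescence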
[10] = ZM109 Env clade C HIV-1 fusion inhibitors, dose response, HeLa effector, CEM target cells, luciferase, cherry-pick (AID 652058); format: functional, cell-based
[11] = off-target signal loss in HeLa-CEM21 co-culture – HeLa F-luc CTL cells, cherry-picked, counter-screen for HIV-1 Env fusion inhibitor project, dose response (AID 652040); format: functional, cell-based;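 also: potency for signal decrease marking cytotoxic or nonspecific inhibition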

Compound: CC(C)C[C@H]1CN=C(N(C)C)N1CC1CCCCCC1
AC50 [2]: > 70 µM (inactive) | AC50 [3]: 9.97 µM (active) | AC50 [4]: 5.03 µM (active)

Compound: COc1cc2c(cc1[N+](=O)[O-])n(C(C)C)c(=O)n2C(C)C
IC50 [1]: > 50 µM (not active)

Compound: O=C(Nc1cccc(C(F)(F)F)c1)c1cccn(Cc2ccc3c(c2)OC(F)(F)O3)c1=O
AC50 (Cytochrome P450 3A4): 25.1 µM (inconclusive) | AC50 (Cytochrome P450 2C19): 2.24 µM (inconclusive) | IC50 [1]: > 50 µM (not active)

Compound: CCCN1C=CC(=C/C=C(\C#N)C(=O)OCC)C=C1
IC50 (Leucine aminopeptidase): 91.5 µM (active)

Compound: Cc1cc(C(=O)CSc2nc[nH]n2)c(C)n1-c1cccc(S(=O)(=O)N2CCOCC2)c1
IC50 (Leucine aminopeptidase): 22.8 µM (active)

Compound: O=C(c1cc([N+](=O)[O-])ccc1N1CCOCC1)N1CCCCC1
IC50 [1]: > 50 µM (not active)

Compound: CCOc1ncccc1C(=O)Nc1nnc(C)s1
IC50 [1]: > 50 µM (not active)

Compound: Cc1cc(C)n2nc(SCC(=O)c3cc(C)n(-c4cc(C)on4)c3C)nc2n1
AC50 [2]: > 70 µM (inactive) | AC50 [3]: 3.28 µM (active) | AC50 [4]: 2.46 µM (active)

Compound: CCOC(=O)c1c(NC(=O)C2C3C=CC(CC3)C2C(=O)O)sc(C)c1CC (centres undefined)
IC50 (Leucine aminopeptidase): 13.2 µM (active)

Compound: CC1(C)CC2CC(C)(CN2S(=O)(=O)c2cccc(C(=O)OCC(=O)NC(N)=O)c2)C1 (centres undefined)
AC50 [8]: 6.32 µM (active) | AC50 [9]: 13.8 µM (active) | AC50 [10]: 6.73 µM (active) | AC50 [11]: 6.33 µM (active)

Compound: O=C1C(Cl)=C(N2CCN(C/C=C/c3ccccc3)CC2)C(=O)N1c1ccc(Cl)nc1
IC50 [7]: > 50 µM (inconclusive)

Compound: Cc1nc2sccn2c1-c1csc(NCc2ccccc2)n1
AC50 [8]: 15.4 µM (active) | AC50 [9]: 10.7 µM (active) | AC50 [10]: 10.1 µM (active) | AC50 [11]: 24 µM (active)

Compound: CCC1(c2ccccc2)NC(=O)N(CC(=O)Nc2cc(S(=O)(=O)N3CCCCC3)ccc2OC(C)C)C1=O (centres undefined)
AC50 [8]: 1.8 µM (active) | AC50 [9]: 14.7 µM (active) | AC50 [10]: 3.02 µM (active) | AC50 [11]: 5.57 µM (active)

Compound: Cc1cc(Cl)ccc1OCCCC(=O)Nc1cc(S(=O)(=O)N2CCOCC2)ccc1N1CCOCC1
AC50 [8]: 2.05 µM (active) | AC50 [9]: 7.34 µM (active) | AC50 [10]: 5.3 µM (active) | AC50 [11]: 4.73 µM (active)

Compound: CC1=NNC(=O)C1CCC(=O)N/N=C(\C)c1ccccc1 (centres undefined)
IC50 (Leucine aminopeptidase): 36.6 µM (active)

Other lines, results leading:

IC50 [1]: 3.42 µM (not active)
Compound: COc1ccccc1NC(=O)C12CC3CC(C1)CC(c1ccc(C)cc1)(C3)C2

IC50 (Leucine aminopeptidase): 8.96 µM (active)
Compound: COc1ccc(CC(CC(=O)O)C(=O)Nc2ccc(OC)cc2)cc1 (centres undefined)

IC50 [5]: 3.24 µM (not active) | IC50 (Leucine aminopeptidase): 3.05 µM (active) | IC50 [6]: 50 µM (inactive)
Compound: O=C(O)CCN1C(=O)/C(=C/c2cn(-c3ccccc3)nc2-c2cccs2)SC1=S

IC50 [1]: 5.76 µM (not active)
Compound: CC1(C(=O)NCc2ccc(Cl)c(Cl)c2)Oc2ccccc2NC1=O (centres undefined)

IC50 [7]: > 100 µM (not active)
Compound: O=C(O)CSc1cccc2c(SCC(=O)O)cccc12

IC50 (Leucine aminopeptidase): 11.8 µM (active)
Compound: O=C(O)C1CC=CCC1C(=O)NCCc1cccc(Cl)c1 (centres undefined)

IC50 (Leucine aminopeptidase): 8.08 µM (active)
Compound: CC(C)c1c(O)nc(SCC(=O)Nc2ccc3c(c2)CCC3)[nH]c1=O

IC50 [7]: > 100 µM (not active)
Compound: O=C(CSc1ccccn1)Nc1ccc(O)c(C(=O)O)c1

IC50 [1]: 6.72 µM (active)
Compound: Cn1nc(C(F)(F)F)c2cc(NC(=O)OCc3ccc(F)cc3)sc21
